Reference: ChEMBL document CHEMBL1131481, “Novel 3-aralkyl-7-(amino-substituted)-1,2,3-triazolo[4,5-d]pyrimidines with high affinity toward A1 adenosine receptors” (J Med Chem, 1998)

target: T1, Adenosine receptor A1 (Bos taurus, UniProt P28190); assay: Compound was tested for binding affinity at Adenosine A1 receptor in bovine brain cortical membranes using [3H](R)-(-)-N6-(2-phenylisopropyl)adenosine (R-PIA) as radioligand; format: cell membranes
T1 sequence (P28190 whole entry): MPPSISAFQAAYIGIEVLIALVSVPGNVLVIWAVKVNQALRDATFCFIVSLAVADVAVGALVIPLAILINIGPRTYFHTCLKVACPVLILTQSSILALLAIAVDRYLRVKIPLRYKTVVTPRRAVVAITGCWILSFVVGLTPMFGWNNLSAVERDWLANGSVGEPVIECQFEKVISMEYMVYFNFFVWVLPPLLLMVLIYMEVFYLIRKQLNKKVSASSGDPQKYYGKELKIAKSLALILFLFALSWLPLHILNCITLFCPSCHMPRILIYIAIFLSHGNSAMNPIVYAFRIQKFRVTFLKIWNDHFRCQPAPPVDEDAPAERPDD

Compared with `Cc1ccc(Nc2ncnc3c2nnn3CCc2ccccc2)cc1`, `Cc1ccc(Nc2ncnc3c2nnn3Cc2ccccc2)cc1` is 3.3-fold lower in Ki: 1670 nM for the first, 502 nM for the second.

First: Cc1cccc(Nc2ncnc3c2nnn3Cc2ccccc2Cl)c1
Second: Clc1cccc(Nc2ncnc3c2nnn3Cc2ccccc2Cl)c1
The Ki of the first is 3.2-fold higher: 5880 nM for the first, 1830 nM for the second.

Compared with `Nc1ccc(CCNc2ncnc3c2nnn3Cc2ccccc2)cc1`, `Nc1ccc(CNc2ncnc3c2nnn3Cc2ccccc2)cc1` is 6.2-fold higher in Ki: 1540 nM for the first, 9500 nM for the second. The first binds more tightly here.

`c1ccc(Cn2nnc3c(NC4CCCCC4)ncnc32)cc1` and `c1ccc(Cn2nnc3c(NC4CCCC4)ncnc32)cc1` are within 1.5-fold of each other in Ki: 121 nM for the first, 127 nM for the second.

First: Cc1ccc(Nc2ncnc3c2nnn3Cc2ccccc2Cl)cc1
Second: O=[N+]([O-])c1cccc(Nc2ncnc3c2nnn3Cc2ccccc2Cl)c1
The Ki of the first is 28-fold lower: 119 nM for the first, 3300 nM for the second. The first binds more tightly here.

First: Clc1cccc(Nc2ncnc3c2nnn3CCc2ccccc2)c1
Second: Clc1cccc(Nc2ncnc3c2nnn3Cc2ccccc2)c1
The Ki of the first is 7.2-fold higher: 3320 nM for the first, 463 nM for the second. The second binds more tightly here.

Going from `Clc1ccccc1Cn1nnc2c(NC3CCCC3)ncnc21` to `Clc1ccccc1Cn1nnc2c(NC3CCCCC3)ncnc21`, the Ki rises from 21 nM to 43 nM (2-fold). The first binds more tightly here.

Compared with `CC(Cc1ccccc1)Nc1ncnc2c1nnn2Cc1ccccc1` (centres undefined), `C[C@H](Cc1ccccc1)Nc1ncnc2c1nnn2Cc1ccccc1` is 2.1-fold lower in Ki: 575 nM for the first, 274 nM for the second.

Going from `CC(Cc1ccccc1)Nc1ncnc2c1nnn2Cc1ccccc1Cl` (centres undefined) to `C[C@H](Cc1ccccc1)Nc1ncnc2c1nnn2Cc1ccccc1Cl`, the Ki falls from 73 nM to 39 nM (1.9-fold). The second binds more tightly here.

Compared with `Cc1cccc(Nc2ncnc3c2nnn3CCc2ccccc2)c1`, `Cc1cccc(Nc2ncnc3c2nnn3Cc2ccccc2)c1` is 4-fold lower in Ki: 4380 nM for the first, 1100 nM for the second.

Compared with `CC1CCCC(Nc2ncnc3c2nnn3Cc2ccccc2Cl)C1` (centres undefined), `CC1CCCC(Nc2ncnc3c2nnn3Cc2ccccc2)C1` (centres undefined) is 7.5-fold higher in Ki: 102 nM for the first, 770 nM for the second.

Compared with `c1ccc(Cn2nnc3c(NCC4CCCCC4)ncnc32)cc1`, `Clc1ccccc1Cn1nnc2c(NCC3CCCCC3)ncnc21` is 1.5-fold higher in Ki: 2790 nM for the first, 4260 nM for the second. The first binds more tightly here.

First: O=[N+]([O-])c1ccc(CNc2ncnc3c2nnn3CCc2ccccc2)cc1
Second: O=[N+]([O-])c1ccc(CNc2ncnc3c2nnn3Cc2ccccc2)cc1
The Ki of the first is lower: 245 nM for the first, > 10000 nM for the second. The first binds more tightly here.

Going from `CC(Nc1ncnc2c1nnn2CCc1ccccc1)c1ccccc1` (centres undefined) to `CC(Nc1ncnc2c1nnn2Cc1ccccc1)c1ccccc1` (centres undefined), the Ki falls from 2200 nM to 438 nM (5-fold).

`c1ccc(CCn2nnc3c(NC4CCCCC4)ncnc32)cc1` and `c1ccc(CCn2nnc3c(NC4CCCC4)ncnc32)cc1` are within 1.5-fold of each other in Ki: 216 nM for the first, 176 nM for the second.

Going from `CC(Nc1ncnc2c1nnn2Cc1ccccc1Cl)c1ccccc1` (centres undefined) to `Clc1ccccc1Cn1nnc2c(NNc3ccccc3)ncnc21`, the Ki rises from 468 nM to > 10000 nM.

Compared with `O=[N+]([O-])c1cccc(Nc2ncnc3c2nnn3Cc2ccccc2)c1`, `O=[N+]([O-])c1cccc(Nc2ncnc3c2nnn3CCc2ccccc2)c1` is 5.1-fold higher in Ki: 443 nM for the first, 2250 nM for the second.

`O=[N+]([O-])c1ccc(CNc2ncnc3c2nnn3Cc2ccccc2Cl)cc1` and `O=[N+]([O-])c1ccc(CCNc2ncnc3c2nnn3Cc2ccccc2Cl)cc1` cannot be ordered by Ki: > 10000 nM for the first, > 10000 nM for the second.

`Nc1ccc(CNc2ncnc3c2nnn3Cc2ccccc2Cl)cc1` and `O=[N+]([O-])c1ccc(CCNc2ncnc3c2nnn3Cc2ccccc2)cc1` cannot be ordered by Ki: > 10000 nM for the first, > 10000 nM for the second.

In the case of `CC(Cc1ccccc1)Nc1ncnc2c1nnn2CCc1ccccc1` (centres undefined), the Ki is reported as 2490 nM.
